Where two headings read alike, the source gives them in different places.
Tests used:
RT-SHIV = experiment: Plasma SHIV RNA (RT-PCR) in RT-SHIV-infected macaques treated with CAB LA; conditions: for Median VL treated: median of treated macaques
Description: (§1) CAB LA (200 mg/mL injectable stock aqueous suspension) was given at a dose of 50 mg kg^−1 under anesthesia by intramuscular injection into the quadriceps. Volumes greater than 1.0 mL were divided into two injection sites.

[1] = tested on: SIV integrase E92G (SIV IN RTV pseudovirus)
[2] = tested on: SIV integrase I72T (SIV IN RTV pseudovirus); experiment: organism not typed; assay type: cell-based
[3] = time course, day given in the Days column, CAB LA 50 mg/kg i.m. days 11, 39, 67, LLOQ 10 ng ml^-1
Description: as §1

C[C@H]1CO[C@@H]2Cn3cc(C(=O)NCc4ccc(F)cc4F)c(=O)c(O)c3C(=O)N12 [CAB, cabotegravir]
SHIV RNA copies/ml (RT-SHIV; macaque CH54, day 36): 1291 copies/ml | SHIV RNA copies/ml (RT-SHIV; macaque CH54, day 39): 1031 copies/ml | SHIV RNA copies/ml (RT-SHIV; macaque CH54, day 43): 750 copies/ml | SHIV RNA copies/ml (RT-SHIV; macaque CH54, day 46): 485 copies/ml | SHIV RNA copies/ml (RT-SHIV; macaque CH54, day 50): 803 copies/ml | SHIV RNA copies/ml (RT-SHIV; macaque CH54, day 53): 49 copies/ml | SHIV RNA copies/ml (RT-SHIV; macaque CH54, day 57): 158 copies/ml | SHIV RNA copies/ml (RT-SHIV; macaque CH54, day 60): 2633 copies/ml | SHIV RNA copies/ml (RT-SHIV; macaque CH54, day 64): 1132 copies/ml | SHIV RNA copies/ml (RT-SHIV; macaque CH54, day 67): 4979 copies/ml | SHIV RNA copies/ml (RT-SHIV; macaque CJ92, day 14): 87372 copies/ml | SHIV RNA copies/ml (RT-SHIV; macaque CJ92, day 16): 9159 copies/ml | SHIV RNA copies/ml (RT-SHIV; macaque CJ92, day 18): 1727 copies/ml | SHIV RNA copies/ml (RT-SHIV; macaque CJ92, day 22): 101 copies/ml | SHIV RNA copies/ml (RT-SHIV; macaque CJ92, day 25): 49 copies/ml | SHIV RNA copies/ml (RT-SHIV; macaque CJ92, day 29): 423 copies/ml | SHIV RNA copies/ml (RT-SHIV; macaque CJ92, day 32): 300 copies/ml | SHIV RNA copies/ml (RT-SHIV; macaque CJ92, day 36): 57 copies/ml | SHIV RNA copies/ml (RT-SHIV; macaque CJ92, day 39): 270 copies/ml | SHIV RNA copies/ml (RT-SHIV; macaque CJ92, day 43): 49 copies/ml | SHIV RNA copies/ml (RT-SHIV; macaque CJ92, day 46): 108 copies/ml | SHIV RNA copies/ml (RT-SHIV; macaque CJ92, day 50): 163 copies/ml | SHIV RNA copies/ml (RT-SHIV; macaque CJ92, day 53): 49 copies/ml | SHIV RNA copies/ml (RT-SHIV; macaque CJ92, day 57): 49 copies/ml | SHIV RNA copies/ml (RT-SHIV; macaque CJ92, day 60): 49 copies/ml | SHIV RNA copies/ml (RT-SHIV; macaque CJ92, day 64): 49 copies/ml | SHIV RNA copies/ml (RT-SHIV; macaque CJ92, day 67): 50 copies/ml | Median VL treated (RT-SHIV; day 0): 49 copies/ml | Median VL treated (RT-SHIV; day 2): 21683 copies/ml | Median VL treated (RT-SHIV; day 4): 196903 copies/ml | Median VL treated (RT-SHIV; day 7): 674920 copies/ml | Median VL treated (RT-SHIV; day 9): 6944678 copies/ml | Median VL treated (RT-SHIV; day 11): 4288688 copies/ml | Median VL treated (RT-SHIV; day 14): 167021 copies/ml | Median VL treated (RT-SHIV; day 16): 25119 copies/ml | Median VL treated (RT-SHIV; day 18): 5906 copies/ml | Median VL treated (RT-SHIV; day 22): 688 copies/ml | Median VL treated (RT-SHIV; day 25): 322 copies/ml | Median VL treated (RT-SHIV; day 29): 1263 copies/ml | Median VL treated (RT-SHIV; day 32): 345 copies/ml | Median VL treated (RT-SHIV; day 36): 160 copies/ml | Median VL treated (RT-SHIV; day 39): 293 copies/ml | Median VL treated (RT-SHIV; day 43): 192 copies/ml | Median VL treated (RT-SHIV; day 46): 92 copies/ml | Median VL treated (RT-SHIV; day 50): 229 copies/ml | Median VL treated (RT-SHIV; day 53): 60 copies/ml | Median VL treated (RT-SHIV; day 57): 91 copies/ml | Median VL treated (RT-SHIV; day 60): 69 copies/ml | Median VL treated (RT-SHIV; day 64): 429 copies/ml | Median VL treated (RT-SHIV; day 67): 85 copies/ml | Median VL treated (RT-SHIV; day 71): 205 copies/ml | Median VL treated (RT-SHIV; day 74): 49 copies/ml | Median VL treated (RT-SHIV; day 78): 76 copies/ml | Median VL treated (RT-SHIV; day 81): 64 copies/ml | Median VL treated (RT-SHIV; day 85): 85 copies/ml | Median VL treated (RT-SHIV; day 88): 61 copies/ml | Median VL treated (RT-SHIV; day 92): 59 copies/ml | Median VL treated (RT-SHIV; day 95): 80 copies/ml | Median VL treated (RT-SHIV; day 102): 49 copies/ml | Median VL treated (RT-SHIV; day 106): 61 copies/ml | Median VL treated (RT-SHIV; day 115): 2657 copies/ml | Median VL treated (RT-SHIV; day 120): 15539 copies/ml | Median VL treated (RT-SHIV; day 134): 2817 copies/ml | Median VL treated (RT-SHIV; day 143): 2103 copies/ml | Median VL treated (RT-SHIV; day 148): 2164 copies/ml | Median VL treated (RT-SHIV; day 155): 1667 copies/ml | Median VL treated (RT-SHIV; day 162): 1714 copies/ml | Median VL treated (RT-SHIV; day 170): 1307 copies/ml | Median VL treated (RT-SHIV; day 176): 558 copies/ml | Median VL treated (RT-SHIV; day 183): 4928 copies/ml | Median VL treated (RT-SHIV; day 190): 6516 copies/ml | Median VL treated (RT-SHIV; day 197): 8692 copies/ml | Median VL treated (RT-SHIV; day 204): 9657 copies/ml | EC50 [1]: 4.2 nM | fold-change relative to wild type integrase [1]: 3.5 fold | EC50 ([2]; HEK293): 0.96 nM | fold-change relative to wild type integrase ([2]; {}): 0.8 fold | Vaginal fluid CAB concentration in treated macaques ([3]; macaque 10D181): 0.009 µg/mL | Vaginal fluid CAB concentration in treated macaques ([3]; macaque 33996): 0.009 µg/mL
